For 47 molecules, IC50 results are on record in patent publication US12157732B2, “eIF4E inhibitors and uses thereof” (PIC Therapeutics, Inc., priority 2021, dated 2024).

For the assay, the target named is T1, Human eIF4E (aa 28-217) / biotin labeled 4G2 peptide (Homo sapiens, UniProt P06730).
T1 construct: Human eIF4E (aa 28-217) with a C-terminal His-tag; made in house
T1 sequence (P06730 28-217): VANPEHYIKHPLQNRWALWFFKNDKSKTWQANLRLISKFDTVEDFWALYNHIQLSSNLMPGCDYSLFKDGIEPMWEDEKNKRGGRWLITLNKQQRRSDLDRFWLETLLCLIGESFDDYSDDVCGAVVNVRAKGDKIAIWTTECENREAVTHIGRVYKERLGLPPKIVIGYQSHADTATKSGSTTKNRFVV
The assay can be described thus: Human eIF4E/4G2 binding assay (TR-FRET). As to conditions: TR-FRET eIF4E/4G2 peptide binding; 4 hours preincubation with eIF4E at room temperature. The method, then:
Example 3. Compound Testing in Human eIF4E/4G2 Binding Assay
Human eIF4E (aa 28-217) with a C-terminal His-tag was expressed in E. coli in inclusion bodies. The protein was solubilized with 8 M urea and purified under denaturing conditions using nickel-charged HisTrap HP columns (GE Healthcare). The purified protein was then refolded by diluting in 20 mM Hepes pH 7.0, 0.5 M NaCl, 1 mM DTT, 1 mM EDTA, 0.5 M arginine plus 6 M urea, and then dialyzing overnight into the same buffer without the urea. The protein was further dialyzed into 20 mM Hepes, pH 6.5, 50 mM NaCl, 1 mM EDTA, 1 mM DTT, and concentrated using Hitrap SP sepharose FF columns (GE Healthcare). The concentrated protein was dialyzed into 20 mM Hepes, pH 7.0, 0.5M NaCl, 5 mM DTT and 10% glycerol, and stored at −80° C. until use.
Test compounds (3.43 mM stock in DMSO) were diluted 2-fold in series in DMSO (10 concentration points). Compound solutions (1.2 μl/well) were added into black 384-well polypropylene microplates (Matrix, Thermal Scientific). Twenty-two microliters per well of Assay Buffer (50 mM NaPi, pH 6.5, 50 mM KCl, 1 mM DTT and 0.5 mg/ml gamma globulin) and eight microliters per well of 82.5 nM purified eIF4E in Assay Buffer were added. The samples were incubated at room temperature (20-23° C.) for 4 hours. Biotin labeled 4G2 peptide (Ac-Lys-Gln-Tyr-Asp-Arg-Glu-Phe-Leu-Leu-Asp-Phe-Gln-Phe-Met-Pro-Lys(Aha-Bio)-NH2, 1.75 μM stock in DMSO) was diluted to 0.14 μM in Assay Buffer (without DTT) and 5 μl/well was added. The samples were incubated at room temperature for 20 min. Five microliters per well of 6.4 nM Eu-streptavidin (Eu-SA, Perkin Elmer) and 80 nM Allophycocyanin (APC)-anti His antibody (Columbia Biosciences) in Assay Buffer (without DTT) were then added and the samples were incubated at room temperature for 20 min.
Assay signals were monitored by reading excitation at 340 nm and emission fluorescence at 615 nm and 665 nm on an Envision reader (Perkin Elmer). Normalized TR-FRET (time-resolved fluorescence resonance energy transfer) assay signal (Rn) was calculated by the formula: Rn=[(A−Ba−C×D)/(D−Bd)]×(Dc−Bd) Where A is the fluorescence intensity of the sample at 665 nm, D is the fluorescence intensity of the sample at 615 nm, Ba and Bd are plate backgrounds at 665 nm and 615 nm, respectively, Dc is the fluorescence intensity of 0.78 nM Eu-SA in the assay buffer at 615 nm The cross-talk factor (C) is determined by the following formula: C=(Ac−Ba)/(Dc−Bd) Where Ac is the fluorescence intensity of 0.78 nM Eu-SA in the assay buffer at 665 nm.
IC50 values were calculated using xLFit program (IDBS). Table 3 below lists IC50 of some compounds, wherein A represents IC50<0.5 μM; B represents 500 nM<IC50<1 μM; and C represents IC50>1 μM.
For `COc1cc(Cl)ccc1-c1sc(Nc2ncc(C(F)(F)F)cc2C(=O)O)nc1C(C)C` [I-40], the half-inhibitory concentration (IC50) fell in the range of 500 to 1000 nM.

With `CC(C)CCc1nc(Nc2ncc(C(F)(F)F)cc2C(=O)O)sc1-c1ccc(-c2ccccn2)cc1` [I-15], the IC50 was below 500 nM.

As to `COc1ccc(-c2sc(Nc3ncc(C(F)(F)F)cc3C(=O)O)nc2C(C)C)c(OC)c1` [I-47], the IC50 was above 1000 nM.

In turn, `COc1ccc(-c2sc(Nc3ncc(-c4cccs4)cc3C(=O)O)nc2C)cc1Cl` [I-53] yielded an IC50 of 500 to 1000 nM.

Molecule `COc1cc(-c2sc(Nc3ncc(-c4cccs4)cc3C(=O)O)nc2CC(C)C)ccc1F` [I-55] showed a 50% inhibitory concentration (IC50) of 500 to 1000 nM.

As to `CC(C)c1nc(Nc2ncc(C(F)(F)F)cc2C(=O)O)sc1-c1ccc(OCc2ccccc2)cc1` [I-45], the IC50 was below 500 nM.

`COc1ccc(-c2sc(Nc3ncc(-c4cccs4)cc3C(=O)O)nc2C(C)C)cc1Cl` [I-50]: the IC50 fell in the range of 500 to 1000 nM.

`CC(C)c1nc(Nc2ncc(C(F)(F)F)cc2C(=O)O)sc1-c1cccs1` [I-21] yielded an IC50 of 500 to 1000 nM.

Molecule `CC(C)Cc1nc(Nc2ncc(C(F)(F)F)cc2C(=O)O)sc1-c1ccc2ccccc2c1` [I-30] displayed an IC50 below 500 nM.

For the molecule `CC(C)CCc1nc(Nc2ncc(-c3cccs3)cc2C(=O)O)sc1-c1ccc(OC(F)(F)F)cc1` [I-17], the IC50 was below 500 nM.

The molecule `CC(C)CCc1nc(Nc2cc(C3CCCC3)sc2C(=O)O)sc1-c1ccc(-n2ccccc2=O)cc1` [I-13] returned an IC50 below 500 nM.

Turning to `CC(C)c1nc(Nc2ncc(C(F)(F)F)cc2C(=O)O)sc1-c1ccc(Cl)s1` [I-48], the 50% inhibitory concentration (IC50) was in the range of 500 to 1000 nM.

In turn, `COc1ccc(-c2sc(Nc3ncc(C(F)(F)F)cc3C(=O)O)nc2C(C)C)cc1F` [I-43] gave an IC50 of 500 to 1000 nM.

For the molecule `CC(C)c1nc(Nc2ncc(C(F)(F)F)cc2C(=O)O)sc1-c1ccc(C(F)(F)F)cc1` [I-25], the IC50 lay within 500 to 1000 nM.

`CC(C)c1nc(Nc2ncc(C(F)(F)F)cc2C(=O)O)sc1-c1ccc(OC(F)F)cc1` [I-44] yielded an IC50 of 500 to 1000 nM.

Molecule `CC(C)c1nc(Nc2ncc(C(F)(F)F)cc2C(=O)O)sc1-c1ccc(Cl)cc1F` [I-37, 2-(5-(4-chloro-2-fluorophenyl)-4-isopropylthiazol-2-ylamino)-5-(trifluoromethyl)nicotinic acid] displayed a half-maximal inhibitory concentration (IC50) of 500 to 1000 nM.

As to `CC(C)c1nc(Nc2ncc(C(F)(F)F)cc2C(=O)O)sc1-c1ccc(Cl)c(Cl)c1` [I-1, 2-(5-(3,4-Dichlorophenyl)-4-Isopropylthiazol-2-Ylamino)-5-(trifluoromethyl)nicotinic acid], the IC50 was below 500 nM.

With `CC(C)c1nc(Nc2ncc(C(F)(F)F)cc2C(=O)O)sc1-c1ccc(C(F)(F)F)cc1Cl` [I-33], the 50% inhibitory concentration (IC50) fell in the range of 500 to 1000 nM.

`CC(C)CCc1nc(Nc2ncccc2C(=O)O)sc1-c1ccc(Cl)c(Cl)c1` [I-7] showed an IC50 below 500 nM.

Regarding `CC(C)c1nc(Nc2ncc(C(F)(F)F)cc2C(=O)O)sc1-c1cccc2ccccc12` [I-20], the IC50 was 500 to 1000 nM.

In turn, `CC(C)c1nc(Nc2ncc(C(F)(F)F)cc2C(=O)O)sc1-c1ccc(Cl)cc1Cl` [I-31, 2-(5-(2,4-dichlorophenyl)-4-isopropylthiazol-2-ylamino)-5-(trifluoromethyl)nicotinic acid] showed an IC50 of 500 to 1000 nM.

As for `CC(C)c1nc(Nc2ncc(C(F)(F)F)cc2C(=O)O)sc1-c1ccsc1` [I-22], the IC50 is 500 to 1000 nM.

`CC(C)c1ccc(-c2sc(Nc3ncc(C(F)(F)F)cc3C(=O)O)nc2C(C)C)cc1` [I-34] had an IC50 of 500 to 1000 nM.

Take `CC(C)c1nc(Nc2ncc(C(F)(F)F)cc2C(=O)O)sc1C1=CCCCC1` [I-23]: the IC50 is 500 to 1000 nM.

Molecule `COc1ccc(-c2sc(Nc3ncc(C(F)(F)F)cc3C(=O)O)nc2C(C)C)cc1Cl` [I-51] showed an IC50 of 500 to 1000 nM.

Turning to `COc1ccc(-c2sc(Nc3ncc(-c4cccs4)cc3C(=O)O)nc2C2CC2)cc1Cl` [I-52, 2-((5-(3-chloro-4-methoxyphenyl)-4-cyclopropylthiazol-2-yl)amino)-5-(thiophen-2-yl)nicotinic acid], the IC50 is below 500 nM.

The molecule `COc1ccc(-c2sc(Nc3ncc(C(F)(F)F)cc3C(=O)O)nc2C(C)C)cc1OC` [I-42] gave a 50% inhibitory concentration (IC50) above 1000 nM.

In the case of `CC(C)c1nc(Nc2ncc(C(F)(F)F)cc2C(=O)O)sc1-c1ccc(F)cc1F` [I-36], the IC50 lay in the range of 500 to 1000 nM.

Consider `CC(C)CCc1nc(Nc2ncc(-c3cccs3)cc2C(=O)O)sc1-c1ccc(Oc2ccccc2)cc1` [I-14], for which the IC50 was below 500 nM.

With `CC(C)CCc1nc(Nc2ncc(C(F)(F)F)cc2C(=O)O)sc1-c1ccc(Cl)c(Cl)c1` [I-4], the IC50 was below 500 nM.

As for `CC(C)CCc1nc(Nc2ncc(C(F)(F)F)cc2C(=O)O)sc1-c1ccc(S(C)(=O)=O)cc1` [I-10], the IC50 was in the range of 500 to 1000 nM.

In the case of `CC(C)c1nc(Nc2ncc(C(F)(F)F)cc2C(=O)O)sc1-c1ccc(-c2cccs2)cc1` [I-24, 2-(4-Isopropyl-5-(4-(Thiophen-2-Yl)Phenyl)Thiazol-2-Ylamino)-5-(trifluoromethyl)nicotinic acid], the IC50 is below 500 nM.

In turn, `CC(C)c1nc(Nc2ncc(C(F)(F)F)cc2C(=O)O)sc1-c1csc2ccccc12` [I-32, 2-(5-(benzo[b]thiophen-3-yl)-4-isopropylthiazol-2-ylamino)-5-(trifluoromethyl)nicotinic acid] displayed an IC50 of 500 to 1000 nM.

Consider `CC(C)CCc1nc(Nc2ncc(-c3cccs3)cc2C(=O)O)sc1-c1ccc(S(C)(=O)=O)cc1` [I-9], for which the IC50 lay within 500 to 1000 nM.

As for `CC(C)CCc1nc(Nc2ncc(-c3cccs3)cc2C(=O)O)sc1-c1ccccc1` [I-8], the concentration for half-maximal inhibition (IC50) was below 500 nM.

As to `CC(C)CCc1nc(Nc2cc(C3CCCC3)sc2C(=O)O)sc1-c1ccc(Oc2ccccc2)cc1` [I-12], the IC50 is below 500 nM.

For `CC(C)CCc1nc(Nc2cc(C3CCCC3)sc2C(=O)O)sc1-c1ccc(Cl)c(Cl)c1` [I-11], the IC50 is below 500 nM.

Regarding `CC(C)c1nc(Nc2ncc(C(F)(F)F)cc2C(=O)O)sc1-c1ccc(-c2ccccc2)s1` [I-49], the IC50 was below 500 nM.

`COc1ccc(-c2sc(Nc3ncc(C(F)(F)F)cc3C(=O)O)nc2C(C)C)cc1` [I-41] registered an IC50 of 500 to 1000 nM.

`CC(C)CCc1nc(Nc2ncc(-c3cccs3)cc2C(=O)O)sc1-c1ccc(Cl)c(Cl)c1` [I-3] registered an IC50 below 500 nM.

With `CC(C)c1nc(Nc2ncc(C(F)(F)F)cc2C(=O)O)sc1-c1ccc(C(C)(C)C)cc1` [I-35], the concentration for half-maximal inhibition (IC50) was below 500 nM.

Turning to `CC(C)c1nc(Nc2ncc(C(F)(F)F)cc2C(=O)O)sc1-c1ccc(C(F)(F)F)c(F)c1` [I-39], the IC50 was below 500 nM.

`CC(C)c1nc(Nc2ncc(C(F)(F)F)cc2C(=O)O)sc1-c1ccc2ccccc2c1` [I-19] displayed an IC50 of 500 to 1000 nM.

Molecule `CC(C)c1nc(Nc2ncc(C(F)(F)F)cc2C(=O)O)sc1-c1ccccn1` [I-46, 2-(4-isopropyl-5-(pyridin-2-yl)thiazol-2-ylamino)-5-(trifluoromethyl)nicotinic acid] came in with an IC50 above 1000 nM.

The molecule `CC(C)CCc1nc(Nc2ncc(C(F)(F)F)cc2C(=O)O)sc1-c1ccc(N2CCOCC2)cc1` [I-16, 2-(4-Isopentyl-5-(4-Morpholinophenyl)Thiazol-2-Ylamino)-5-(trifluoromethyl)nicotinic acid] displayed an IC50 above 1000 nM.

On to `CC(C)c1nc(Nc2ncc(-c3ccccc3)cc2C(=O)O)sc1C1=CCCCC1` [I-27, 2-(5-cyclohexenyl-4-isopropylthiazol-2-ylamino)-5-phenylnicotinic acid], for which the IC50 fell in the range of 500 to 1000 nM.

`CC(C)CCc1nc(Nc2ccsc2C(=O)O)sc1-c1ccc(Cl)c(Cl)c1` [I-5] showed an IC50 below 500 nM.

What is called IC50 is the concentration needed to halve the response being measured. Lower therefore signals greater potency in that assay.
